Reference: a compilation of properties of binary mixtures (doi:10.1016/j.molliq.2014.10.017)

Test: xn = mol fraction of the nth substance listed
Conditions: 101 kPa

CCCC[n+]1ccn(C)c1.N#C[S-] + CC#N
speed of sound [m/s]
Conditions | 293.15 K | 298.15 K | 303.15 K | 308.15 K | 313.15 K
x2 = 0 | 1778.8 | 1767.2 | 1755.4 | 1743.7 | 1732.1
x2 = 0.0984 | 1764.8 | 1752.9 | 1740.8 | 1728.9 | 1717
x2 = 0.1936 | 1749.3 | – | 1724.7 | 1712.5 | 1700.3
x2 = 0.3061 | – | 1714.1 | 1701.4 | 1688.7 | 1676.1
x2 = 0.4068 | 1701.6 | 1688.5 | 1675.3 | 1662.1 | 1649
x2 = 0.4899 | – | 1662.5 | 1648.8 | 1635.2 | 1621.7
x2 = 0.5994 | 1633.3 | 1618.7 | 1604.2 | 1589.7 | 1575.4
x2 = 0.6925 | 1586.2 | 1571.2 | – | 1540.8 | 1525.7
x2 = 0.7988 | – | 1498.6 | – | 1465.7 | 1449.4
x2 = 0.8971 | 1426.5 | 1408.9 | 1391 | 1373.1 | 1355.2
x2 = 0.9465 | 1372.3 | 1353.6 | 1334.8 | 1316 | 1297.2

CC#N + CCOS(=O)(=O)[O-].CC[n+]1ccn(C)c1
x1 = 1
Conditions | speed of sound [m/s]
293.15 K | 1298.8
298.15 K | 1279
303.15 K | 1258.8
308.15 K | 1238.6
313.15 K | 1218.5

CC#N + CCCC[n+]1ccn(C)c1.N#C[S-]
x1 = 1
Conditions | speed of sound [m/s]
303.15 K | 1258.8
313.15 K | 1218.5

CCOS(=O)(=O)[O-].CC[n+]1ccn(C)c1 + CC#N
speed of sound [m/s]
Conditions | 293.15 K | 298.15 K | 303.15 K | 308.15 K | 313.15 K
x2 = 0 | 1693.1 | 1680.8 | 1668.5 | – | 1644.4
x2 = 0.0934 | – | 1670.3 | – | – | 1633.5
x2 = 0.1936 | 1667 | 1654.5 | 1641.9 | 1629.3 | 1616.8
x2 = 0.2906 | 1649.5 | 1639.7 | 1623.8 | 1610.9 | 1598.1
x2 = 0.397 | 1626.4 | 1613.3 | 1599.9 | 1586.6 | 1573.5
x2 = 0.4967 | 1592.4 | 1578.7 | 1564.7 | 1550.8 | 1537
x2 = 0.5938 | – | 1552.3 | – | 1523.5 | –
x2 = 0.7001 | – | – | – | 1474.1 | 1458.9
x2 = 0.7953 | 1464.6 | 1448.5 | 1432.3 | 1416 | 1399.8
x2 = 0.8951 | – | 1373.4 | – | 1337.9 | 1320.2
x2 = 0.9516 | 1343.4 | 1324.8 | – | 1287.1 | 1268.3
